Literature values in PMC8791944, “GLUT3 inhibitor discovery through in silico ligand screening and in vivo validation in eukaryotic expression systems” (Scientific Reports, 2022).

Test system: GLUT3
Details: read-out: KM of 2-deoxy-glucose for GLUT3; GLUT3 expressed in Xenopus laevis oocytes ref 12; cited from earlier work

O=CC[C@@H](O)[C@H](O)[C@H](O)CO [2-deoxy-glucose, 2-deoxy-D-glucose]
Km: ~1400 µM
